# Assay results taken from patent publication US9073855B2, “BCL-2 selective apoptosis-inducing agents for the treatment of cancer and immune diseases” (AbbVie Inc., priority 2008, dated 2015).
# Legend:
# GST-Bcl-2 = GST-Bcl-2 (Homo sapiens, UniProt P10415); assay: TR-FRET binding assay, GST-Bcl-2 with F-Bak peptide probe; details: TR-FRET Binding Affinity, GST-Bcl-2, F-Bak peptide probe
# Outline: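 Ki was derived with Wang's equation for competitive binding of two ligands. The read-out was time-resolved fluorescence after a 3 h room-temperature incubation, using a Tb-labelled antibody donor and the F-Bak peptide acceptor (excitation 340/35 nm). Test compounds entered as DMSO serial dilutions starting at 50 μM, which was the 2× concentration.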
# GST-Bcl-XL = GST-Bcl-XL (Homo sapiens, UniProt Q07817); assay: TR-FRET binding assay, GST-Bcl-XL with F-Bak peptide probe; details: TR-FRET Binding Affinity, GST-Bcl-XL, F-Bak peptide probe
# Chain of GST-Bcl-XL (Q07817 whole entry): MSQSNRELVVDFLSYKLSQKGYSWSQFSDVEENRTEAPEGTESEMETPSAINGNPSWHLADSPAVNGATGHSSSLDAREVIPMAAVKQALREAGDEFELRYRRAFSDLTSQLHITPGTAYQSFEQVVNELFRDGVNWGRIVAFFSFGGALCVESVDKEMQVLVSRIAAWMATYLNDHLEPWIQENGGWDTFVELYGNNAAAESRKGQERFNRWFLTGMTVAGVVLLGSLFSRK
# Experimental: Tb-anti-GST antibody was purchased from Invitrogen (Catalog No. PV4216).
# Representative compounds were serially diluted in dimethyl sulfoxide (DMSO) starting at 50 μM (2× starting concentration; 10% DMSO) and 10 μL were transferred into a 384-well plate.
# The samples were then mixed on a shaker for 1 minute and incubated for an additional 3 hours at room temperature. For each assay, the probe/antibody and protein/probe/antibody were included on each assay plate as negative and positive controls, respectively. Fluorescence was measured on the ENVISION plate reader (Perkin Elmer) using a 340/35 nm excitation filter and 520/525 (F-Bak peptide) and 495/510 nm (Tb-labeled […] antibody) emission filters.
# The inhibition constant (Ki) is the dissociation constant of an enzyme-inhibitor complex or a protein/small molecule complex, wherein the small molecule is inhibiting binding of one protein to another protein or peptide. […] Inhibition constants were determined using Wang's equation (Wang Z-X., An Exact Mathematical Expression For Describing Competitive Binding Of Two Different Ligands To A Protein Molecule. FEBS Lett. 1995, 360:111-4).
# Chain of GST-Bcl-2 (P10415 whole entry): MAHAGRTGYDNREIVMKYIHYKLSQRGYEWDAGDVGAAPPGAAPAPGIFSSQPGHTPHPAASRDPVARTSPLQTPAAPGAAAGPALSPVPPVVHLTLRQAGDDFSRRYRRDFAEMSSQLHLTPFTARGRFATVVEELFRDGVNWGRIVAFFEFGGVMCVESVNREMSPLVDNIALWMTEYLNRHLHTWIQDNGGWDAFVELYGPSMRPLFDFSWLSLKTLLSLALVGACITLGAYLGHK
SMILES,Ki (GST-Bcl-2) [nM],Ki (GST-Bcl-XL) [nM]
"CN(C)CCCNc1ccc(S(=O)(=O)NC(=O)c2ccc(N3CCN(Cc4ccccc4-c4ccc(Cl)cc4)CC3)cc2Oc2ccccc2)cc1C#N [Example 90, 4-{4-[(4′-chloro-1,1′-biphenyl-2-yl)methyl]piperazin-1-yl}-N-[(3-cyano-4-{[3-(dimethylamino)propyl]amino}phenyl)sulfonyl]-2-phenoxybenzamide]",2.13,284
"O=C(NS(=O)(=O)c1ccc(NCCCN2CCCC2)c([N+](=O)[O-])c1)c1ccc(N2CCN(Cc3ccccc3-c3ccc(Cl)cc3)CC2)cc1Oc1ccccc1 [Example 91, 4-{4-[(4′-chloro-1,1′-biphenyl-2-yl)methyl]piperazin-1-yl}-N-({3-nitro-4-[(3-pyrrolidin-1-ylpropyl)amino]phenyl}sulfonyl)-2-phenoxybenzamide]",0.193,10.2
"CN(C)CCCNc1ccc(S(=O)(=O)NC(=O)c2ccc(N3CCN(Cc4ccccc4-c4ccc(Cl)cc4)CC3)cc2Oc2ccccc2)cc1C(F)(F)F [Example 92, 4-{4-[(4′-chloro-1,1′-biphenyl-2-yl)methyl]piperazin-1-yl}-N-{[4-{[3-(dimethylamino)propyl]amino}-3-(trifluoromethyl)phenyl]sulfonyl}-2-phenoxybenzamide]",4.38,349
"CC(C)N(C)CCCNc1ccc(S(=O)(=O)NC(=O)c2ccc(N3CCN(Cc4ccccc4-c4ccc(Cl)cc4)CC3)cc2Oc2ccccc2)cc1[N+](=O)[O-] [Example 93, 4-{4-[(4′-chloro-1,1′-biphenyl-2-yl)methyl]piperazin-1-yl}-N-{[4-({3-[isopropyl(methyl)amino]propyl}amino)-3-nitrophenyl]sulfonyl}-2-phenoxybenzamide]",0.231,13.9
"CN1CCN(CCNc2ccc(S(=O)(=O)NC(=O)c3ccc(N4CCN(CC5=C(c6ccc(Cl)cc6)CC(C)(C)CC5)CC4)cc3Oc3ccc4[nH]ccc4c3)cc2[N+](=O)[O-])CC1 [Example 95, 4-(4-{[2-(4-chlorophenyl)-4,4-dimethylcyclohex-1-en-1-yl]methyl}piperazin-1-yl)-2-(1H-indol-5-yloxy)-N-[(4-{[2-(4-methylpiperazin-1-yl)ethyl]amino}-3-nitrophenyl)sulfonyl]benzamide]",0.06,15.7
"CN1CCN(CCNc2ccc(S(=O)(=O)NC(=O)c3ccc(N4CCN(CC5=C(c6ccc(Cl)cc6)CC(C)(C)CC5)CC4)cc3Oc3cccc4[nH]ccc34)cc2[N+](=O)[O-])CC1 [Example 101, 4-(4-{[2-(4-chlorophenyl)-4,4-dimethylcyclohex-1-en-1-yl]methyl}piperazin-1-yl)-2-(1H-indol-4-yloxy)-N-[(4-{[2-(4-methylpiperazin-1-yl)ethyl]amino}-3-nitrophenyl)sulfonyl]benzamide]",0.092,11.2
"CN1CCN(c2ccc(S(=O)(=O)NC(=O)c3ccc(N4CCN(CC5=C(c6ccc(Cl)cc6)CC(C)(C)CC5)CC4)cc3Oc3ccc4[nH]ccc4c3)cc2[N+](=O)[O-])CC1 [Example 107, 4-(4-{[2-(4-chlorophenyl)-4,4-dimethylcyclohex-1-en-1-yl]methyl}piperazin-1-yl)-2-(1H-indol-5-yloxy)-N-{[4-(4-methylpiperazin-1-yl)-3-nitrophenyl]sulfonyl}benzamide]",2.09,130
"CC1(C)CCC(CN2CCN(c3ccc(C(=O)NS(=O)(=O)c4ccc(NC5CCN(CC(F)(F)F)CC5)c([N+](=O)[O-])c4)c(Oc4cccc5[nH]ccc45)c3)CC2)=C(c2ccc(Cl)cc2)C1 [Example 108, 4-(4-{[2-(4-chlorophenyl)-4,4-dimethylcyclohex-1-en-1-yl]methyl}piperazin-1-yl)-2-(1H-indol-4-yloxy)-N-[(3-nitro-4-{[1-(2,2,2-trifluoroethyl)piperidin-4-yl]amino}phenyl)sulfonyl]benzamide]",2.34,59.6
"O=C(NS(=O)(=O)c1ccc(NCC2CCOCC2)c([N+](=O)[O-])c1)c1ccc(N2CCN(Cc3cc(OCCCN4CCCCC4)ccc3-c3ccc(Cl)cc3)CC2)cc1Oc1ccccc1 [Example 114, 4-(4-{[4′-chloro-4-(3-piperidin-1-ylpropoxy)-1,1′-biphenyl-2-yl]methyl}piperazin-1-yl)-N-({3-nitro-4-[(tetrahydro-2H-pyran-4-ylmethyl)amino]phenyl}sulfonyl)-2-phenoxybenzamide]",0.096,14.3
"O=C(NS(=O)(=O)c1ccc(NCC2CCOCC2)c([N+](=O)[O-])c1)c1ccc(N2CCN(Cc3cc(OCCN4CCOCC4)ccc3-c3ccc(Cl)cc3)CC2)cc1Oc1ccccc1 [Example 115, 4-(4-{[4′-chloro-4-(2-morpholin-4-ylethoxy)-1,1′-biphenyl-2-yl]methyl}piperazin-1-yl)-N-({3-nitro-4-[(tetrahydro-2H-pyran-4-ylmethyl)amino]phenyl}sulfonyl)-2-phenoxybenzamide]",0.176,27.5
"CN(C)CCCOc1ccc(-c2ccc(Cl)cc2)c(CN2CCN(c3ccc(C(=O)NS(=O)(=O)c4ccc(NCC5CCOCC5)c([N+](=O)[O-])c4)c(Oc4ccccc4)c3)CC2)c1 [Example 116, 4-[4-({4′-chloro-4-[3-(dimethylamino)propoxy]-1,1′-biphenyl-2-yl}methyl)piperazin-1-yl]-N-({3-nitro-4-[(tetrahydro-2H-pyran-4-ylmethyl)amino]phenyl}sulfonyl)-2-phenoxybenzamide]",0.036,8.3
"O=C(NS(=O)(=O)c1ccc(NCC2CCOCC2)c(S(=O)(=O)C(F)(F)F)c1)c1ccc(N2CCN(Cc3cc(OCCN4CCOCC4)ccc3-c3ccc(Cl)cc3)CC2)cc1Oc1ccccc1 [Example 117, 4-(4-{[4′-chloro-4-(2-morpholin-4-ylethoxy)-1,1′-biphenyl-2-yl]methyl}piperazin-1-yl)-2-phenoxy-N-({4-[(tetrahydro-2H-pyran-4-ylmethyl)amino]-3-[(trifluoromethyl)sulfonyl]phenyl}sulfonyl)benzamide]",2.3,> 660
"O=C(NS(=O)(=O)c1ccc(NCC2CCOCC2)c(S(=O)(=O)C(F)(F)F)c1)c1ccc(N2CCN(Cc3cc(OCCCN4CCCCC4)ccc3-c3ccc(Cl)cc3)CC2)cc1Oc1ccccc1 [Example 118, 4-(4-{[4′-chloro-4-(3-piperidin-1-ylpropoxy)-1,1′-biphenyl-2-yl]methyl}piperazin-1-yl)-2-phenoxy-N-({4-[(tetrahydro-2H-pyran-4-ylmethyl)amino]-3-[(trifluoromethyl)sulfonyl]phenyl}sulfonyl)benzamide]",0.769,> 660
"CN(C)CCCOc1ccc(-c2ccc(Cl)cc2)c(CN2CCN(c3ccc(C(=O)NS(=O)(=O)c4ccc(NCC5CCOCC5)c(S(=O)(=O)C(F)(F)F)c4)c(Oc4ccccc4)c3)CC2)c1 [Example 119, 4-[4-({4′-chloro-4-[3-(dimethylamino)propoxy]-1,1′-biphenyl-2-yl}methyl)piperazin-1-yl]-2-phenoxy-N-({4-[(tetrahydro-2H-pyran-4-ylmethyl)amino]-3-[(trifluoromethyl)sulfonyl]phenyl}sulfonyl)benzamide]",0.622,230
"CN(C)CCOc1cccc(-c2ccc(Cl)cc2)c1CN1CCN(c2ccc(C(=O)NS(=O)(=O)c3ccc(NCC4CCOCC4)c(S(=O)(=O)C(F)(F)F)c3)c(Oc3ccccc3)c2)CC1 [Example 124, 4-[4-({4′-chloro-3-[2-(dimethylamino)ethoxy]-1,1′-biphenyl-2-yl}methyl)piperazin-1-yl]-2-phenoxy-N-({4-[(tetrahydro-2H-pyran-4-ylmethyl)amino]-3-[(trifluoromethyl)sulfonyl]phenyl}sulfonyl)benzamide]",0.335,73.7
"O=C(NS(=O)(=O)c1ccc(NCC2CCOCC2)c([N+](=O)[O-])c1)c1ccc(N2CCN(Cc3cc(OCCN4CCOCC4)ccc3-c3ccc(Cl)cc3)CC2)cc1Oc1ccc2[nH]ccc2c1 [Example 127, 4-(4-{[4′-chloro-4-(2-morpholin-4-ylethoxy)-1,1′-biphenyl-2-yl]methyl}piperazin-1-yl)-2-(1H-indol-5-yloxy)-N-({3-nitro-4-[(tetrahydro-2H-pyran-4-ylmethyl)amino]phenyl}sulfonyl)benzamide]",0.459,> 660
"CN(C)CCNc1ccc(S(=O)(=O)NC(=O)c2ccc(N3CCN(Cc4ccccc4-c4ccc(Cl)cc4)CC3)cc2Oc2ccccc2)cc1[N+](=O)[O-] [Example 153, 4-{4-[(4′-chloro-1,1′-biphenyl-2-yl)methyl]piperazin-1-yl}-N-[(4-{[2-(dimethylamino)ethyl]amino}-3-nitrophenyl)sulfonyl]-2-phenoxybenzamide]",0.265,93
"CN(C)CCCCNc1ccc(S(=O)(=O)NC(=O)c2ccc(N3CCN(Cc4ccccc4-c4ccc(Cl)cc4)CC3)cc2Oc2ccccc2)cc1[N+](=O)[O-] [Example 156, 4-{4-[(4′-chloro-1,1′-biphenyl-2-yl)methyl]piperazin-1-yl}-N-[(4-{[4-(dimethylamino)butyl]amino}-3-nitrophenyl)sulfonyl]-2-phenoxybenzamide]",0.116,6.16
